Assay [1] concerns the target Beta-1 adrenergic receptor (Homo sapiens, UniProt P08588). The assay is classed as functional, cell-based.
In assay [2] the target is Sodium channel protein type 5 subunit alpha (Homo sapiens, UniProt Q14524). The assay is classed as functional, cell-based.

Where only a bound is given, the exact number is not on record here.
Also: assay procedure not described here.

Sequence of Beta-1 adrenergic receptor (P08588 whole entry): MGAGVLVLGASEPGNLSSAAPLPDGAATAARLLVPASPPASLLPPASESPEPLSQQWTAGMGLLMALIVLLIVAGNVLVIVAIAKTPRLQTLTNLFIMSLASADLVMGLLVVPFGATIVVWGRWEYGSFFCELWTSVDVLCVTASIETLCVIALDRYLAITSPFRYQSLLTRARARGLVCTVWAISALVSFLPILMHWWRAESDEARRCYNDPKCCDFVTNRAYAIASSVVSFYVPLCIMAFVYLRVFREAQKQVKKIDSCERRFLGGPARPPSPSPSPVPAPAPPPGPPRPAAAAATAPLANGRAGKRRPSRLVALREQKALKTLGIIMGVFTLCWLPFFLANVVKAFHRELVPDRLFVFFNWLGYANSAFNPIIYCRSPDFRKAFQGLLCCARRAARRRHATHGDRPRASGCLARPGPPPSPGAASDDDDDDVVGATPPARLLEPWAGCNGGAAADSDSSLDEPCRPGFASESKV
Sequence of Sodium channel protein type 5 subunit alpha (Q14524 whole entry): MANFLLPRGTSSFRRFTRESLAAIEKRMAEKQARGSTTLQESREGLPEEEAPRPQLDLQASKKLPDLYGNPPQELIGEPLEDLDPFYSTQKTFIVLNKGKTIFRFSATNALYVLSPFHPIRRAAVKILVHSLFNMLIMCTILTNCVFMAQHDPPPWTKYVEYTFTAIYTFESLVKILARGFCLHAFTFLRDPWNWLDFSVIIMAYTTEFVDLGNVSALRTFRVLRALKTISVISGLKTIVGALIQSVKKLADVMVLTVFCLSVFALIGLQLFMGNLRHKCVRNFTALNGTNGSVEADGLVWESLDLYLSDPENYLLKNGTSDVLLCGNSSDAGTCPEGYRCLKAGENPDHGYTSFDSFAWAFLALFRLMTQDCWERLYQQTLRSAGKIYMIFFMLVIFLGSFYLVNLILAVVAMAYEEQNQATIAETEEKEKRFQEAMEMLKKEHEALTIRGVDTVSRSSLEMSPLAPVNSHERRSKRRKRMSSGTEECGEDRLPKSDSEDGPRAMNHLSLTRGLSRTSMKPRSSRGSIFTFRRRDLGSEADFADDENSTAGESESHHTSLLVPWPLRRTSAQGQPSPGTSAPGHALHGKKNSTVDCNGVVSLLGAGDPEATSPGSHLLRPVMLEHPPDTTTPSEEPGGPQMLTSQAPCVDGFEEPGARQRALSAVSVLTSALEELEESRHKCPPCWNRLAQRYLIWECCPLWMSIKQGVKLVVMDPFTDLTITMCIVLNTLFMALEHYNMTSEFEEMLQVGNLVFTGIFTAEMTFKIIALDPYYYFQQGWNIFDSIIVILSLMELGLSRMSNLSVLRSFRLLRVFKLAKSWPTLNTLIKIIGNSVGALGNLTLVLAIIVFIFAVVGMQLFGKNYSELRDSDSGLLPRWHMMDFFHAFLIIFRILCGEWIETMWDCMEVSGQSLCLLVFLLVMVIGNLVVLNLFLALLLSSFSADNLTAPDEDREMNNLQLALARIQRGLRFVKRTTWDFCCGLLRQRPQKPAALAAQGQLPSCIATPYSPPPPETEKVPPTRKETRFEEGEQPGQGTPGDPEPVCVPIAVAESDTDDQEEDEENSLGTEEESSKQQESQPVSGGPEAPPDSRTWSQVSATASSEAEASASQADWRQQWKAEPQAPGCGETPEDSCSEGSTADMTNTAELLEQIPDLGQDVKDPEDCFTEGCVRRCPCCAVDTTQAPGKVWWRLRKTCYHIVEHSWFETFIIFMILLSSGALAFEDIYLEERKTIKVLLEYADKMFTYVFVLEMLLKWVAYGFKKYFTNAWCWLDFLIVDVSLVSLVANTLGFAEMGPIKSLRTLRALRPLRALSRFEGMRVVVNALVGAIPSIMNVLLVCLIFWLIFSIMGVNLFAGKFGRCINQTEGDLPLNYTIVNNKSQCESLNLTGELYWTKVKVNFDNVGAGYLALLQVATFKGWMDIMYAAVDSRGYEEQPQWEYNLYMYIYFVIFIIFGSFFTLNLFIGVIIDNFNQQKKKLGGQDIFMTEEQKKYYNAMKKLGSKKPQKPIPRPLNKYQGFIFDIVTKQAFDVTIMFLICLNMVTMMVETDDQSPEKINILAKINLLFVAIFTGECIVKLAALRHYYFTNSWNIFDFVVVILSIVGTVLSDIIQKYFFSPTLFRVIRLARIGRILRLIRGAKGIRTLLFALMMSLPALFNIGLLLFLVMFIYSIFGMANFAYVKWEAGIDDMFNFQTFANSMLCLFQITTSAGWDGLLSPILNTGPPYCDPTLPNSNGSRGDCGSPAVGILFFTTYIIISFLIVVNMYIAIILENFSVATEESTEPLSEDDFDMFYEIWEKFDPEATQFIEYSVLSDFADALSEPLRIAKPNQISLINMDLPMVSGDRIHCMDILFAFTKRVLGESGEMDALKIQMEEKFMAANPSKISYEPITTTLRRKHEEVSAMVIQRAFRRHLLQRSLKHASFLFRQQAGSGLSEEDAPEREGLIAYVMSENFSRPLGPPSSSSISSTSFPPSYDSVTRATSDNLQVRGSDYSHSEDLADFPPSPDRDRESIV

For `N#Cc1ccccc1-c1cc(-c2ccccn2)cn(-c2ccccc2)c1=O`, the concentration at half-maximal activity (AC50) in assay [1] and in assay [2] was above 30 µM each time.

Turning to `O=C(CCCN1CCC(n2c(O)nc3ccccc32)CC1)c1ccc(F)cc1` [BENPERIDOL], the AC50 in assay [1] was above 30 µM.

As to `C#C[C@]1(O)CC[C@H]2[C@@H]3CCC4=CC(=O)CCC4=C3C=C[C@@]21CC` [GESTRINONE], in assay [1], the concentration at half-maximal activity (AC50) is above 30 µM.

As for `CCCCCCOC(=O)CCC(=O)CN` [HEXAMINOLEVULINATE], the concentration at half-maximal activity (AC50) in assay [1] was above 30 µM.

`COc1c(O[C@@H]2O[C@H](CO)[C@@H](O)[C@H](O)[C@H]2O)cc2c(c1OC)-c1ccc(SC)c(=O)cc1[C@@H](NC(C)=O)CC2` [THIOCOLCHICOSIDE] registered an AC50 in assay [1] above 30 µM.

As a reminder, the AC50 is the concentration giving half of the maximal activity seen. A high value points to activity only at high concentration.

(Values after ChEMBL document CHEMBL5291721, “A preclinical secondary pharmacology resource illuminates target-adverse drug reaction associations of marketed drugs” (Nat Commun, 2023).)
